pEC50, pIC50: −log10 of the molar value.
Legend:
[1] = biological target: T1, HCV NS5B RdRp genotype 1b (Hepatitis C virus genotype 1b, UniProt Q9WMX2); test: HCV NS5B RdRp enzyme assay (standard / modified); assay type: biochemical; settings: HCV NS5B genotype 1b
T1 construct: The protein was expressed with an 18 amino acid C-terminal truncation to enhance the solubility; made in house; host or cells: E. coli BL21(DE3), pET21a vector
Experimental: HCV NS5B RdRp cloning, expression, and purification. The cDNA encoding the NS5B protein of HCV, genotype 1b, was cloned into the pET21a expression vector. The protein was expressed with an 18 amino acid C-terminal truncation to enhance the solubility. The E. coli competent cell line BL21(DE3) was used for expression of the protein. Cultures were grown at 37° C. for ˜4 hours until the cultures reached an optical density of 2.0 at 600 nm. The cultures were cooled to 20° C. and induced with 1 mM IPTG. Fresh ampicillin was added to a final concentration of 50 μg/ml and the cells were grown overnight at 20° C.
Cell pellets (3 L) were lysed for purification to yield 15-24 mgs of purified NS5B. The lysis buffer consisted of 20 mM Tris-HCl, pH 7.4, 500 mM NaCl, 0.5% triton X-100, 1 mM DTT, 1 mM EDTA, 20% glycerol, 0.5 mg/ml lysozyme, 10 mM MgCl2, 15 ug/ml deoxyribonuclease I, and Complete™ protease inhibitor tablets (Roche). After addition of the lysis buffer, frozen cell pellets were resuspended using a tissue homogenizer. To reduce the viscosity of the sample, aliquots of the lysate were sonicated on ice using a microtip attached to a Branson sonicator. The sonicated lysate was centrifuged at 100,000×g for 1 hr at 4° C. and filtered through a 0.2 μm filter unit (Corning).
The protein was purified using three sequential chromatography steps: Heparin sepharose CL-6B, polyU sepharose 4B, and Hitrap SP sepharose (Pharmacia). The chromatography buffers were identical to the lysis buffer but contained no lysozyme, deoxyribonuclease I, MgCl2 or protease inhibitor and the NaCl concentration of the buffer was adjusted according to the requirements for charging the protein onto the column. Each column was eluted with a NaCl gradient which varied in length from 5-50 column volumes depending on the column type. After the final chromatography step, the resulting purity of the enzyme is >90% based on SDS-PAGE analysis. The enzyme was aliquoted and stored at −80° C.
Standard HCV NS5B RdRp enzyme assay. HCV RdRp genotype 1b assays were run in a final volume of 60 μl in 96 well plates (Costar 3912). The assay buffer is composed of 20 mM Hepes, pH 7.5, 2.5 mM KCl, 2.5 mM MgCl2, 1 mM DTT, 1.6 U RNAse inhibitor (Promega N2515), 0.1 mg/ml BSA (Promega R3961), and 2% glycerol. All compounds were serially diluted (3-fold) in DMSO and diluted further in water such that the final concentration of DMSO in the assay was 2%. HCV RdRp genotype 1b enzyme was used at a final concentration of 28 nM. A polyA template was used at 6 nM, and a biotinylated oligo-dT12 primer was used at 180 nM final concentration. Template was obtained commercially (Amersham 27-4110). Biotinylated primer was prepared by Sigma Genosys. 3H-UTP was used at 0.6 μCi (0.29 μM total UTP). Reactions were initiated by the addition of enzyme, incubated at 30° C. for 60 min, and stopped by adding 25 μl of 50 mM EDTA containing SPA beads (4 μg/μl, Amersham RPNQ 0007). Plates were read on a Packard Top Count NXT after >1 hr incubation at room temperature.
Modified HCV NS5B RdRp enzyme assay. A modified enzyme assay was performed essentially as described for the standard enzyme assay except for the following: The biotinylated oligo dT12 primer was precaptured on streptavidin-coated SPA beads by mixing primer and beads in assay buffer and incubating at room temperature for one hour. Unbound primer was removed after centrifugation. The primer-bound beads were resuspended in 20 mM Hepes buffer, pH 7.5 and used in the assay at final concentrations of 20 nM primer and 0.67 μg/μl beads. Order of addition in the assay: enzyme (14 nM) was added to diluted compound followed by the addition of a mixture of template (0.2 nM), 3H-UTP (0.6 μCi, 0.29 μM), and primer-bound beads, to initiate the reaction; concentrations given are final. Reactions were allowed to proceed for 4 hours at 30° C.
IC50 values for compounds were determined using seven different [I]. […]

[2] = test system: HCV replicon cells; test: HCV replicon assay (FRET or luciferase readout); assay type: cell-based
Excerpt: FRET Assay Preparation. To perform the HCV FRET screening assay, 96-well cell culture plates were used. The FRET peptide (Anaspec, Inc.) (Taliani et al., Anal. Biochem. 1996, 240, 60-67) contains a fluorescence donor, EDANS, near one end of the peptide and an acceptor, DABCYL, near the other end. The fluorescence of the peptide is quenched by […] resonance energy transfer (RET) between the donor and the acceptor, but as the NS3 protease cleaves the peptide the products are released from RET quenching and the fluorescence of the donor becomes apparent. The assay reagent was made as follows: 5× cell Luciferase cell culture lysis reagent from Promega (#E153A) diluted to 1× with dH2O, NaCl added to 150 mM final, the FRET peptide diluted to 20 μM final from a 2 mM stock.
To prepare plates, HCV replicon cells, with or without a Renilla luciferase reporter gene, were trypsinized and placed into each well of a 96-well plate with titrated test compounds added in columns 3 through 12; columns 1 and 2 contained a control compound (HCV protease inhibitor), and the bottom row contained cells without compound. The plates were then placed in a CO2 incubator at 37° C.
Assays. Subsequent to addition of the test compounds described above (FRET Assay Preparation), at various times the plate was removed and Alamar blue solution (Trek Diagnostics, #00-100) was added per well as a measure of cellular toxicity. After reading in a Cytoflour 4000 instrument (PE Biosystems), plates were rinsed with PBS and then used for FRET assay by the addition of 30 ul of the FRET peptide assay reagent described above (FRET Assay Preparation) per well. The plate was then placed into the Cytoflour 4000 instrument which had been set to 340 excite/490 emission, automatic mode for 20 cycles and the plate read in a kinetic mode. Typically, the signal to noise using an endpoint analysis after the reads was at least three-fold. Alternatively, after Alamar blue reading, plates were rinsed with PBS, 50 ul of DMEM (high glucose) without phenol red was added and plates were then used for luciferase assay using the Promega Dual-Glo Luciferase Assay System.
Compound analysis was determined by quantification of the relative HCV replicon inhibition and the relative cytotoxicity values. To calculate cytoxicity values, the average Alamar Blue fluorescence signals from the control wells were set as 100% non-toxic. The individual signals in each of the compound test wells were then divided by the average control signal and multiplied by 100% to determine […]. To calculate the HCV replicon inhibition values, an average background value was obtained from the two wells containing the highest amount of HCV protease inhibitor at the end of the assay period. These numbers were similar to those obtained from naïve Huh-7 cells.
The background numbers were then subtracted from the average signal obtained from the control wells and this number was used as 100% activity. The individual signals in each of the compound test wells were then divided by the averaged control values after background subtraction and multiplied by 100% to determine percent activity. EC50 values for a protease inhibitor titration were calculated as the concentration which caused a 50% reduction in FRET or luciferase activity. The two numbers generated for the compound plate, percent cytoxicity and percent activity were used to determine compounds of interest for further analysis.

T1 sequence (Q9WMX2 2420-2992): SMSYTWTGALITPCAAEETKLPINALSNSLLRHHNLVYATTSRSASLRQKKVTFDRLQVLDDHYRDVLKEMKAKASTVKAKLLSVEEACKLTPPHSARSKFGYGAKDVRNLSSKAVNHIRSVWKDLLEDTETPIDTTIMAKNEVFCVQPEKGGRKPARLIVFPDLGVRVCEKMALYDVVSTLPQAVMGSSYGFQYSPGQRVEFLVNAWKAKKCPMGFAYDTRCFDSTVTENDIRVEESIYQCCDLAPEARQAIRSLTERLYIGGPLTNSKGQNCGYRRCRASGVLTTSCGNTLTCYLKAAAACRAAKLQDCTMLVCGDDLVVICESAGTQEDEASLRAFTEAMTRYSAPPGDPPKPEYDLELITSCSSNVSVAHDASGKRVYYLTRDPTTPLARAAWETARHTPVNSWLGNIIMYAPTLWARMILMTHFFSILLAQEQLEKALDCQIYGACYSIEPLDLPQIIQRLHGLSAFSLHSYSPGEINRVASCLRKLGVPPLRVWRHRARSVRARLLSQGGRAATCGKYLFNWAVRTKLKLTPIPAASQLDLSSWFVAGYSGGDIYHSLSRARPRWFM

Compound | pIC50 ([1]; Table 1) | pEC50 ([2]; Hepatitis C virus, Table 1) | also measured
CNC(=O)c1c(-c2ccc(F)cc2)nc2ccc(-c3cc(C(=O)NC4(c5ccccn5)CC4)ccc3C)cn12 | 6.60 to 8.70 | 6.60 to 8.70 | –
CNC(=O)c1c(-c2ccc(F)cc2)nn2ccc(-c3cc(C(=O)NC4(c5ccccn5)CC4)ccc3C)cc12 [drawing 88] | 6.60 to 8.70 | 6.60 to 8.70 | –
CNC(=O)c1c(-c2ccc(F)cc2)nn2ccc(-c3cc(C(=O)NC4(c5nc(C)no5)CC4)ccc3C)c(F)c12 | 5.00 to 6.00 | < 5.00 | –
CNC(=O)c1c(-c2ccc(F)cc2)nn2c(F)cc(-c3cc(C(=O)NC4(c5ccccn5)CC4)ccc3C)cc12 | 6.60 to 8.70 | 6.60 to 8.70 | –
CNC(=O)c1c(-c2ccc(F)cc2)nn2ccc(-c3cc(C(=O)NC4(c5ccccn5)CC4)cc(F)c3C)c(F)c12 | – | 6.60 to 8.70 | –
CNC(=O)c1c(-c2ccc(F)cc2)nn2ccc(-c3cccc(C(=O)NC(C)(C)c4ccccc4)c3)cc12 | 6.60 to 8.70 | 6.60 to 8.70 | –
CNC(=O)c1c(-c2ccc(F)cc2)nc2ccc(-c3cc(C(=O)NC(C)(C)c4ccccc4)ccc3OC)cn12 | 6.60 to 8.70 | 6.60 to 8.70 | –
CCN(c1cn2nc(-c3ccc(F)cc3)c(C(=O)NC)c2cc1-c1cccc(C(=O)NC(C)(C)c2ccccc2)c1)S(C)(=O)=O [drawing 176] | – | – | pIC50 ([1]; Table 2): 8.02; pEC50 ([2]; Hepatitis C virus, Table 2): 8.22
CNC(=O)c1c(-c2ccc(F)cc2)oc2ccc(-c3cc(C(=O)NC4(c5ccccn5)CC4)ccc3C)nc12 | 6.60 to 8.70 | 6.60 to 8.70 | –
CNC(=O)c1c(-c2ccc(F)cc2)nn2ccc(-c3cccc(C(=O)NC4(c5ccccc5)CCC4)c3)cc12 | 6.60 to 8.70 | 6.60 to 8.70 | –
CCN(c1cn2nc(-c3ccc(F)cc3)c(C(=O)NC)c2cc1-c1cccc(C(=O)NC(C)(C)c2ccccc2)c1)S(C)(=O)=O [drawing 92] | 6.60 to 8.70 | 6.60 to 8.70 | –
CNC(=O)c1c(-c2ccc(F)cc2)nn2ccc(-c3cc(C(=O)NC4(c5ncccn5)CC4)c(OC)cc3C)c(F)c12 | 6.60 to 8.70 | 6.60 to 8.70 | –
CNC(=O)c1c(-c2ccc(F)cc2)nn2ccc(-c3cc(C(=O)NC4(c5ccccn5)CC4)c(OC)cc3C)c(F)c12 [drawing 135] | 6.60 to 8.70 | 6.60 to 8.70 | –
CNC(=O)c1c2cc(-c3cccc(C(=O)NC(C)(C)c4ccccc4)c3)ccc2nn1-c1ccc(F)cc1 | 6.60 to 8.70 | 6.00 to 6.60 | –
CNC(=O)c1c(-c2ccc(F)cc2)nn2ccc(-c3cc(C(=O)NC4(c5ccccn5)CC4)ccc3C)c(F)c12 [drawing 130] | 6.60 to 8.70 | 6.60 to 8.70 | –
CNC(=O)c1c(-c2ccc(F)cc2)nn2ccc(-c3cc(C(=O)NC4(c5ccccn5)CC4)c(OC(F)F)nc3C)c(F)c12 | – | 6.60 to 8.70 | –
CNC(=O)c1c(-c2ccc(F)cc2)nn2ccc(-c3cc(C(=O)NC4(c5nc(C)no5)CC4)cc(F)c3C)c(F)c12 | – | 6.60 to 8.70 | –

Compound | pIC50 ([1]; Table 1) | pEC50 ([2]; Hepatitis C virus, Table 1) | also measured
CNC(=O)c1c(-c2ccc(F)cc2)nn2ccc(-c3cc(F)cc(C(=O)NC4(c5ccccc5)CC4)c3)c(F)c12 | – | < 5.00 | –
CNC(=O)c1c(-c2ccc(F)cc2)nn2ccc(-c3cc(F)cc(C(=O)NC4(c5ccccn5)CC4)c3)c(F)c12 | – | 5.00 to 6.00 | –
CNC(=O)c1c(-c2ccc(F)cc2)nc2ccc(C3CC3C(=O)NC3(c4ccccn4)CC3)cn12 (centres unmarked) [drawing 160] | – | – | pEC50 ([2]; Table 1): < 5.00
CNC(=O)c1c(-c2ccc(F)cc2)nn2ccc(-c3cc(C(=O)NC4(c5cc(F)ccn5)CC4)c(OC)nc3C)c(F)c12 | – | 6.60 to 8.70 | –
CNC(=O)c1c(-c2ccc(F)cc2)nn2ccc(-c3cc(C(=O)NC4(c5ccccc5)CC4)c(OC)nc3C)c(F)c12 | – | 6.60 to 8.70 | –
CNC(=O)c1c(-c2ccc(F)cc2)nc2ccc(-c3cc(C(=O)NC4(c5ccccn5)CC4)c(OC)cc3Cl)cn12 [drawing 124] | – | 6.00 to 6.60 | –
CNC(=O)c1c(-c2ccc(F)cc2)nn2ccc(-c3cc(C(=O)NC4(c5ncccn5)CC4)c(OCC4CCOCC4)nc3C)c(F)c12 | – | 6.60 to 8.70 | –
CNC(=O)c1c(-c2ccc(F)cc2)nn2ccc(-c3cc(C(=O)NC4(c5nnc(-c6ccccc6)[nH]5)CC4)c(OC)cc3C)c(F)c12 | – | 6.60 to 8.70 | –
CNC(=O)c1c(-c2ccc(F)cc2)nc2ccc(-c3ccc(-c4cccnc4)c(C(=O)NCC(C)C)c3)cn12 | – | 6.00 to 6.60 | –
CNC(=O)c1c(-c2ccc(F)cc2)nn2ccc(-c3cc(C(=O)NC4(c5ccccn5)CC4)c(OC)nc3C)c(F)c12 | – | 6.60 to 8.70 | –
CNC(=O)c1c(-c2ccc(F)cc2)nn2cc(N(CCO)S(C)(=O)=O)c(-c3cc(C(=O)NC4(c5ccccc5)CC4)ccc3C)cc12 | 6.60 to 8.70 | – | –
CNC(=O)c1c(-c2ccc(F)cc2)nn2ccc(-c3cc(C(=O)NC4(c5ccccc5)CC4)c(OC(F)F)nc3C)c(F)c12 | – | 6.60 to 8.70 | –
CNC(=O)c1c(-c2ccc(F)cc2)nn2ccc(-c3cc(C(=O)NC4(c5ccccc5)CC4)cc(F)c3C)c(F)c12 [drawing 138] | – | 6.60 to 8.70 | –
CNC(=O)c1c(-c2ccc(F)cc2)nn2ccc(-c3cc(C(=O)NC4(c5ccccn5)CC4)c(OCC4CCOCC4)nc3C)c(F)c12 | – | 6.60 to 8.70 | –
CNC(=O)c1c(-c2ccc(F)cc2)nc2ccc(-c3ccc(-c4ccccc4Cl)c(C(=O)NCC(C)C)c3)cn12 [drawing 121] | – | 6.60 to 8.70 | –
CNC(=O)c1c(-c2ccc(F)cc2)nn2ccc(-c3cc(C(=O)NC4(c5cnccn5)CC4)c(OC)cc3C)c(F)c12 | – | 6.60 to 8.70 | –

— US8293909B2, “Compounds for the treatment of hepatitis C” (Bristol-Myers Squibb Company, priority 2008, dated 2012)
